Results reported in patent publication US20180162862A1 (President and Fellows of Harvard College, priority 2015, published 2018).
≈ marks a conversion by molar mass, not a printed value. Read-outs that look alike come from different tables or passages of the source.

What was measured:
[1] = system: MSSA Newman; test: MIC test in TSB medium with MTT staining, MSSA Newman; type: cell-based, Staphylococcus aureus; conditions: Staphylococcus aureus
Method: MIC Test (Methicillin Susceptible Staphylococcus aureus (MSSA Newman))
Overnight cultures of MSSA Newman were grown up in TSB medium at 37° C. The cultures obtained were normalized with TSB to OD600=0.6 and diluted 100-fold. 1.5 μL of a dilution series of Example Compounds in DMSO (100×, in duplicate), and the diluted bacterial culture (150 μL) was added to wells of a sterile, clear 96 well plate and incubated at 37° C.

[2] = system: S. aureus ATCC 29213; test: MIC test according to CLSI M7-A9, S. aureus ATCC 29213; type: cell-based; conditions: Staphylococcus aureus
Procedure, shortened: (§1)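 Per CLSI M7-A9, DMSO stocks diluted in cation-adjusted Mueller Hinton broth, plates incubated 24 h at 37 °C in air. MIC is the lowest concentration giving complete inhibition of visible growth, read visually and at 600 nm.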

[3] = system: S. aureus ATCC 43300; test: MIC test according to CLSI M7-A9, S. aureus ATCC 43300; type: cell-based; conditions: Staphylococcus aureus
Procedure, shortened: as §1

[4] = system: S. aureus Newman; test: MIC test according to CLSI M7-A9, S. aureus Newman; type: cell-based; conditions: Staphylococcus aureus, CLSI M7-A9, CAMHB, 24 h (Table 3), read-out: S. aureus ATCC Newman MIC
Procedure, shortened: as §1

[5] = TSB, 37° C., MTT staining after 7 h, read-out: MSSA Newman MIC at 7 h
[6] = TSB, 37° C., MTT staining after 24 h, read-out: MSSA Newman MIC at 24 h
[7] = ATCC29213, CLSI M7-A9, CAMHB, 24 h (Table 2), read-out: S. aureus ATCC 29213 MIC at 24 h
[8] = ATCC43300, CLSI M7-A9, CAMHB, 24 h (Table 2), read-out: S. aureus ATCC 43300 MIC at 24 h

Structure (SMILES) | MIC [1, 5] [µg/mL] | MIC [1, 6] [µg/mL] | MIC [2, 7] [µg/mL] | MIC [3, 8] [µg/mL] | other results
CC(C)(C)c1ccc(-c2nc3cc(=O)[nH]n3c(=S)[nH]2)cc1 [Example 1, 2-(4-tert-butylphenyl)-4-sulfanylidene-3H,4H,6H,7H-pyrazolo[1,5-a][1,3,5]triazin-7-one] | 12.5 (≈ 41.6 µM) | 12.5 (≈ 41.6 µM) | 16 (≈ 53.3 µM) | 16 (≈ 53.3 µM) | 
Cc1cc(OCCCSc2nc(-c3ccc(C(C)(C)C)cc3)nc3cc(=O)[nH]n23)ccc1Cl [Example 2, 2-(4-tert-butylphenyl)-4-{[3-(4-chloro-3-methylphenoxy)propyl]sulfanyl}-6H,7H-pyrazolo[1,5-a][1,3,5]triazin-7-one] |  |  |  |  | MIC ([1]; 7 h, read-out: MSSA Newman MIC at 7 h): > 100 µg/mL; MIC ([2]; ATCC29213, 24 h, read-out: S. aureus ATCC 29213 MIC at 24 h): > 32 µg/mL; MIC ([3]; ATCC43300, 24 h, read-out: S. aureus ATCC 43300 MIC at 24 h): > 32 µg/mL
Cc1cc(OCCCNc2nc(-c3ccc(C(C)(C)C)cc3)nc3cc(=O)[nH]n23)ccc1Cl [Example 14, 2-(4-tert-butylphenyl)-4-{[3-(4-chloro-3-methylphenoxy)propyl]amino}-6H,7H-pyrazolo[1,5-a][1,3,5]triazin-7-one] | 3.3 (≈ 7.08 µM) | 3.3 (≈ 7.08 µM) | 4 (≈ 8.58 µM) | 4 (≈ 8.58 µM) | 
COc1ccc(CNc2nc(-c3ccc(C(C)(C)C)cc3)nc3cc(=O)[nH]n23)cc1 [Example 15, 2-(4-tert-butylphenyl)-4-{[(4-methoxyphenyl)methyl]amino}-6H,7H-pyrazolo[1,5-a][1,3,5]triazin-7-one] | 3.1 (≈ 7.68 µM) | 12.5 (≈ 31 µM) | 8 (≈ 19.8 µM) | 8 (≈ 19.8 µM) | 
CCCCNc1nc(-c2ccc(C(C)(C)C)cc2)nc2cc(=O)[nH]n12 [Example 16, 4-(butylamino)-2-(4-tert-butylphenyl)-6H,7H-pyrazolo[1,5-a][1,3,5]triazin-7-one] | 6.2 (≈ 18.3 µM) | 12.5 (≈ 36.8 µM) |  |  | 
CNc1nc(-c2ccc(C(C)(C)C)cc2)nc2cc(=O)[nH]n12 [Example 17, 2-(4-tert-butylphenyl)-4-(methylamino)-6H,7H-pyrazolo[1,5-a][1,3,5]triazin-7-one] | 50 (≈ 168 µM) |  |  |  | 
COCCCNc1nc(-c2ccc(C(C)(C)C)cc2)nc2cc(=O)[nH]n12 [Example 27, 2-(4-tert-butylphenyl)-4-[(3-methoxypropyl)amino]-6H,7H-pyrazolo[1,5-a][1,3,5]triazin-7-one] | 50 (≈ 141 µM) | 100 (≈ 281 µM) | > 32 | > 32 | 
CC(C)(C)c1ccc(-c2nc(N)n3[nH]c(=O)cc3n2)cc1 [Example 37, 4-amino-2-(4-tert-butylphenyl)-6H,7H-pyrazolo[1,5-a][1,3,5]triazin-7-one] | 25 (≈ 88.2 µM) |  |  |  | 
CC(C)(C)c1ccc(-c2nc(O)n3[nH]c(=O)cc3n2)cc1 [Example 38, 2-(4-tert-butylphenyl)-4-hydroxy-6H,7H-pyrazolo[1,5-a][1,3,5]triazin-7-one] | 12.5 (≈ 44 µM) | 12.5 (≈ 44 µM) |  |  | 
CC(C)(C)c1ccc(-c2nc(NCCCO)n3[nH]c(=O)c(Cc4ccccc4)c3n2)cc1 [Example 107, 8-benzyl-2-(4-tert-butylphenyl)-4-[(3-hydroxypropyl)amino]-6H,7H-pyrazolo[1,5-a][1,3,5]triazin-7-one] |  |  |  |  | MIC ([2]; ATCC29213, CLSI M7-A9, CAMHB, 24 h (Table 3), read-out: S. aureus ATCC 29213 MIC): > 128 µg/mL; MIC ([3]; ATCC43300, CLSI M7-A9, CAMHB, 24 h (Table 3), read-out: S. aureus ATCC 43300 MIC): > 128 µg/mL; MIC [4]: 64 µg/mL (≈ 148 µM)

More lines, main results first:

MIC [1, 5] [µg/mL] | MIC [1, 6] [µg/mL] | MIC [2, 7] [µg/mL] | MIC [3, 8] [µg/mL] | Structure (SMILES) | other results
3.1 (≈ 8.77 µM) | 6.2 (≈ 17.5 µM) | 16 (≈ 45.3 µM) | 16 (≈ 45.3 µM) | CCCC(C)Nc1nc(-c2ccc(C(C)(C)C)cc2)nc2cc(=O)[nH]n12 (stereo not drawn) [Example 28, 2-(4-tert-butylphenyl)-4-[(pentan-2-yl)amino]-6H,7H-pyrazolo[1,5-a][1,3,5]triazin-7-one] | 
12.5 (≈ 27.7 µM) | 12.5 (≈ 27.7 µM) |  |  | Cc1cc(OCCNc2nc(-c3ccc(C(C)(C)C)cc3)nc3cc(=O)[nH]n23)ccc1Cl [Example 46, 2-(4-tert-butylphenyl)-4-{[2-(4-chloro-3-methylphenoxy)ethyl]amino}-6H,7H-pyrazolo[1,5-a][1,3,5]triazin-7-one] | 
> 100 | > 100 |  |  | CCCCNc1nc(-c2ccc(C)cc2)nc2cc(=O)[nH]n12 [Example 70, 4-(butylamino)-2-(4-methylphenyl)-6H,7H-pyrazolo[1,5-a][1,3,5]triazin-7-one] | 
